Source: patent US6093742A, “Inhibitors of p38” (Vertex Pharmaceuticals, Inc., priority 1997, dated 2000)

Molecular target: T1, p38 (Homo sapiens, UniProt Q16539)
T1 construct: made in house; host or cells: Trichoplusia ni (Tn-368) High-Five insect cells infected with recombinant baculovirus (virus made in Sf9)
Test: p38 inhibition assay: inhibition of phosphorylation of EGF receptor peptide
Assay type: biochemical
Conditions: activated p38 (5 nM), EGF receptor peptide 200 μM, ATP 100 μM, 30 min at 30° C., pH 7.6, HPLC
Description: Two splice variants of human p38 kinase, CSBPl and CSBP2, have been identified. Specific oligonucleotide primers were used to amplify the coding region of CSBP2 cDNA using a HeLa cell library (Stratagene) as a template. The polymerase chain reaction product was cloned into the pET-15b vector (Novagen). The baculovirus transfer vector, pVL-(His)6-p38 was constructed by subcloning a XbaI-BamHI fragment of pET15b-(His)6-p38 into the complementary sites in plasmid pVL1392 (Pharmingen).
P38 was activated by combining 0.5 mg/ml p38 with 0.005 mg/ml DD-double mutant MKK6 in Buffer B+10 mM MgCl2, 2 mM ATP, 0.2 mM Na2VO4 for 30 minutes at 20° C. The activation mixture was then loaded onto a 1.0×10 cm MonoQ column (Pharmacia) and eluted with a linear 20 column volume gradient to 1.0 M NaCl in Buffer B. The activated p38 eluted after the ADP and ATP. The activated p38 peak was pooled and dialyzed against buffer B+0.2 mM Na2VO4 to remove the NaCl. The dialyzed protein was adjusted to 1.1M potassium phosphate by addition of a 4.0M stock solution and loaded onto a 1.0×10 cm HIC (Rainin Hydropore) column previously equilibrated in Buffer D (10% glycerol, 20 mM β-glycerophosphate, 2.0 mM DTT)+1.1MK2HPO4. The protein was eluted with a 20 column volume linear gradient to Buffer D+50 mM K2HPO4. The double phosphorylated p38 eluted as the main peak and was pooled for dialysis against Buffer B+0.2 mM Na2VO4. The activated p38 was stored at -70° C.
Inhibition of Phosphorylation of EGF Receptor Peptide
This assay was carried out in the presence of 10 mM MgCl2, 25 mM β-glycerophosphate, 10% glycerol and 100 mM HEPES buffer at pH 7.6. For a typical IC50 determination, a stock solution was prepared containing all of the above components and activated p38 (5 nM). The stock solution was aliquotted into vials. A fixed volume of DMSO or inhibitor in DMSO (final concentration of DMSO in reaction was 5%) was introduced to each vial, mixed and incubated for 15 minutes at room temperature. EGF receptor peptide, […], a phosphoryl acceptor in p38-catalyzed kinase reaction (1), was added to each vial to a final concentration of 200 μM. The kinase reaction was initiated with ATP (100 μM) and the vials were incubated at 30° C. After 30 minutes, the reactions were quenched with equal volume of 10% trifluoroacetic acid (TFA).
The phosphorylated peptide was quantified by HPLC analysis. Separation of phosphorylated peptide from the unphosphorylated peptide was achieved on a reverse phase column (Deltapak, 5 μm, C18 100D, part no. 011795) with a binary gradient of water and acteonitrile, each containing 0.1% TFA. IC50 (concentration of inhibitor yielding 50% inhibition) was determined by plotting the % activity remaining against inhibitor concentration.

T1 sequence (Q16539 whole entry): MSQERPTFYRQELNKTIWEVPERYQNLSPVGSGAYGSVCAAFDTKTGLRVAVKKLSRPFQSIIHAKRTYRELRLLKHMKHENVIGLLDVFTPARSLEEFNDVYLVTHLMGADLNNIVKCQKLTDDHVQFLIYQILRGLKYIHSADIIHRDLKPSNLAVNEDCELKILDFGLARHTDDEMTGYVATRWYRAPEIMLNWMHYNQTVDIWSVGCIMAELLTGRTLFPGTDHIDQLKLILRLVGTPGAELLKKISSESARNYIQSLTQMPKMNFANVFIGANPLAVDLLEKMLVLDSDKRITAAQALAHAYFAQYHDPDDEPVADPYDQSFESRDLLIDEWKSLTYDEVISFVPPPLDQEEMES

Structure (SMILES) | IC50
Cc1cc(Cl)c([N+](=O)[O-])cc1NC(=O)Nc1ccccc1 [Compound 3] | 370 nM
COc1cc(Cl)c(C)cc1NC(=O)Nc1ccccc1 [Compound 4] | 100 nM
Cc1cc(C)c(NC(=O)Nc2ccccc2)cc1C [Compound 10] | 4200 nM
COc1cc(OC)c(NC(=O)Nc2ccccc2)cc1Cl [Compound 12] | 380 nM
COc1cc([N+](=O)[O-])c(C)cc1NC(=O)Nc1ccccc1 [Compound 13] | 140 nM
Cc1cc(NC(=O)Nc2ccccc2)c(Cl)cc1F [Compound 15] | 5800 nM
COc1cc(OC)c(NC(=O)Nc2ccc(Oc3ccccc3)cc2)cc1Cl [Compound 20] | 8000 nM
COc1cc(OC)c(NC(=O)Nc2cccc(Oc3ccccc3)c2)cc1Cl [Compound 22] | 1900 nM
COc1cc(OC)c(NC(=O)Nc2ccc(Cl)c(Cl)c2)cc1Cl [Compound 24] | 500 nM
COc1cc(OC)c(NC(=O)Nc2ccccc2)cc1Cl [Compound 25] | 1000 nM
COc1cc(OC)c(NC(=O)Nc2ccccc2O)cc1Cl [Compound 28] | 7400 nM
COc1cc(OC)c(NC(=O)Nc2ccc(F)cc2)cc1Cl [Compound 29] | 1450 nM
COc1cc(OC)c(NC(=O)Nc2ccc(Cl)cc2F)cc1Cl [Compound 30] | 1200 nM
COc1cc(OC)c(NC(=O)Nc2ccccc2F)cc1Cl [Compound 31] | 500 nM
COc1cc(OC)c(NC(=O)Nc2ccc(F)c(F)c2)cc1Cl [Compound 33] | 1820 nM
COc1cc(OC)c(NC(=O)N(CC(=O)O)c2ccccc2)cc1Cl [Compound 34] | 19000 nM

Structure (SMILES) | IC50
COc1cc(OC)c(NC(=O)Nc2cccc(F)c2)cc1Cl [Compound 35] | 630 nM
COc1cc(OC)c(NC(=O)Nc2cc(C)ccc2Cl)cc1Cl [Compound 37] | 5100 nM
COc1cc(OC)c(NC(=O)Nc2ccc3c(c2)OCO3)cc1Cl [Compound 40] | 1500 nM
COc1cc(Cl)c(C)cc1NC(=O)Nc1ccccc1 [Compound 61] | 140 nM
O=C(Nc1ccccc1)Nc1ccc(Cl)c(Cl)c1 [Compound 62] | 5600 nM
O=C(Nc1cccc(C(=O)O)c1)Nc1ccc(Cl)c(Cl)c1 [Compound 63] | 5800 nM
O=C(Nc1ccc(Cl)c(Cl)c1)Nc1ccc(Cl)c(Cl)c1 [Compound 64] | 130 nM
NC(=O)c1ccccc1NC(=O)Nc1ccc(Cl)c(Cl)c1 [Compound 107] | 100 nM
COc1cc(C)cc(NC(=O)Nc2ccc(Cl)c(Cl)c2)c1 [Compound 118] | 14700 nM
COC(=O)c1ccccc1NC(=O)Nc1ccc(Cl)c(Cl)c1 [Compound 119] | 6300 nM
CCOc1ccccc1NC(=O)Nc1ccc(Cl)c(Cl)c1 [Compound 121] | 2200 nM
O=C(Nc1ccc(Cl)c(Cl)c1)Nc1ccccc1Cl [Compound 122] | 15100 nM
O=C(Nc1ccc(Cl)c(Cl)c1)Nc1ccc(Br)cc1C(=O)O [Compound 125] | 8400 nM
O=C(Nc1ccc(Cl)c(Cl)c1)Nc1ccc2c(c1)OCCO2 [Compound 126] | 5600 nM
O=C(Nc1ccc(Cl)c(Cl)c1)Nc1cccc2cccnc12 [Compound 131] | 6300 nM
